According to US9730448B2, “Tetrazolinone compound and use of same” (Sumitomo Chemical Company, Limited, priority 2013, dated 2017):

Test system: cucumber powdery mildew fungus (Sphaerotheca fuliginea, a QoI-resistant strain, cytochrome b position 143 glycine to alanine)
Assay: Test Example 6 and Comparative Test Example: control of cucumber powdery mildew (QoI-resistant strain), foliar spray on cucumber
Assay type: in vivo
Details: 500 ppm water dilution sprayed on cucumber (SAGAMI HANJIRO); inoculated after air-drying; investigated after 8 days in greenhouse

Cc1cc(-c2cccs2)ccc1OCc1ccccc1-n1nnn(C)c1=O [1-{[2-[2-methyl-4-(thiophen-2-yl)phenoxy]methyl]phenyl}-4-methyl-1,4-dihydrotetrazol-5-one]
area of lesion spots on the treated plant relative to that on an untreated plant: ≥ 70%
